In patent US4550118A, “Heterocyclic compounds” (Ikeda Mohando Co., Ltd., priority 1982, dated 1985):

How the values were obtained:
[1] = system: acid secretion in pylorus-ligated rats; assay: Anti-secretory effect (histamine-stimulated gastric acid secretion) in pylorus-ligated rat; type: in vivo, male wistar rats; conditions: Rattus norvegicus, sc, 3 h; 2 mg/kg s.c., 30 min before histamine 3 mg/kg s.c.; n=5; * significant at 5%, ** at 1% vs control; read-out: inhibitory effect of acid secretion (%) at 2 mg/kg s.c.
Protocol: (A) Anti-secretory Effect in Pylorus-ligated Rat
After 24 hr fasting, male wistar rats weighing about 160 g were anesthetized by intraperitoreal injection of urethans 1.2 g/kg. Then, after ligating the pylorus and the esophagus, the proventriculus was incised and a double polyethylene cannula was inserted. The gastric wall was washed out with 5 ml of physiological saline every 30 minutes and the amount of acid contained in the saline after washing was measured by titration. After measuring the basal acid secretion of the pylorus ligated rats three times, the compounds of the invention, 2 mg/kg, were administered subcutaneously and, 30 minutes thereafter, histamine 3 mg/kg, was administered also subcutaneously. Then, the amounts of acid secretion were measured for 3 hours. […] Then, an inhibition rate was calculated in accordance with the following formula, in relation to the increment values measured for the control group. [formula]
One group included five examples.

[2] = Acute oral toxicity test in mice (LD50, Litchfield-Wilcoxon); conditions: mouse, in vivo
Protocol: Male dd-mice were divided into groups of 5 and fasted for 8 hours. The test compounds were administered orally to the mice weighing from 19.7 g. to 22.0 g. The mice were observed survival or death as well as the general symptoms over 7 days after the administration of the compounds. The value of LD50 for each compound was estimated from the mortality observed on the basis of the Litchfield-Wilcoxon method.
In a similar test, the test compound of example 27, 35, 66, 84, 97, 104, 118, 125 or 129 was administered orally to the mice at a dose of 1500 mg/kg.

[3] = molecular target: T1, histamine H2 receptor in atria (Cavia porcellus, UniProt P47747); assay: Histamine H2 receptor inhibition effect by isolated guinea pig right atrium preparation (negative chronotropic effect); type: cell-based, Male Hartley Guinea Pig; conditions: 5×10^-6 mol sample 3 minutes prior to histamine, mean of five, read-out: inhibitory effect of histamine H2 receptor in atria (pA2 value) (converted)
T1 construct: right atrium was isolated; from tissue; host or cells: isolated right atrium of male Hartley guinea pig
Protocol: (B) Measurement of Histamine H2 Receptor Inhibition Effect by Isolated Guinea Pig Right Atrium Preparation
Male Hartley Guinea Pig weighing around 400 g was sacrified by decapitation, and right atrium was isolated. The right atrium was suspended in an organ bath (50 ml) containing modified Ringer solution. Under application of a tensile load of 1 g, the heart rate was recorded by means of a polygraph. Histamine was applied cumulatively from 1×10^-7 mol to 3×10^-4 mol and a cumulative dosage response curve was drawn. Then, 5×10^-6 mol of the sample was administered 3 minutes prios to histamine application. The negative logarithmic value (pA2) of the specimen molarity required for shifting the curve to the right to double concentration was calculated.

[4] = system: gastric mucus secretion; assay: Effect on gastric mucus secretion in rats (alcian blue binding); type: in vivo, Wistar male rats; conditions: 10 mg/kg × 2/day orally for 7 days, * significant at 5%, ** at 1%; for Alcian blue binding: 7 rats; for % Change (Alcian blue binding): vs control (0.5% CMC)
Protocol: The test compounds were administered orally to Wistar male rats weighing from 160 to 180 g so as to investigate the effect on gastric mucus secretion. The amount of mucus was determined using alcian blue color specifically bonding with acid mucosaccharides, and was expressed by the amount of color bonding with a unit weight (OD units/g tissue). The test compounds were administered at a dosage of 10 mg/kg twice a day for 7 days, and the rats were sacrificed one hour after the final administration in the morning on the 8th day by cervical dislocation. After laparatomy, the stomach was removed. After removal of the forestomach, an incision was made along the greater curvatura. The stomach was lightly washed with a 0.25M sucrose solution cooled with ice. The weight was determined after absorption of water with a filter paper.
Then, the stomach was exposed for 1.5 hrs in 10 ml of 0.25M sucrose solution containing 0.1% alcian blue 8 GX for staining. Then, the stained stomach was washed with 10 ml of a 0.25M sucrose for 15 min, being dipped in 15 ml of a 0.5M MgCl2 for 2 hrs so as to elute alcian blue combined with the mucus. Finally, 10 ml of ethyl ether was added, and the mixture was shaken vigorously. The floating substances were removed, and the aqueous layer was quantified by measuring the absorption at 605 nm.
The above procedures were carried out at room temperature.

T1 sequence (P47747 whole entry): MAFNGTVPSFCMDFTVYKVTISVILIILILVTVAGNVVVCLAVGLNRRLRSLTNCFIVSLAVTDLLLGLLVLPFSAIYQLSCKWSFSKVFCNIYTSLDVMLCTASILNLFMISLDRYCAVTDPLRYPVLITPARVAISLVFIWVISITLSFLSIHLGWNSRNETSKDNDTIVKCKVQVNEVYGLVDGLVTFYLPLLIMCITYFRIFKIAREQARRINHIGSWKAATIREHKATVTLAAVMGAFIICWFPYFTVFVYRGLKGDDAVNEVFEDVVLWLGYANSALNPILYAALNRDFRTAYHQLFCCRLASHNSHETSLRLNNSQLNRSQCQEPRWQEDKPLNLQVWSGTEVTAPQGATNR

Compound | inhibition in vivo at 2 mg/kg [1] [%] | LD50 at 168 h ([2]; similar test, oral dose of 1500 mg/kg) [mg/kg] | Kb [3] [nM] | Alcian blue binding [4] [OD units/g tissue] | % Change (Alcian blue binding) [4] | LD50 at 168 h ([2]; oral, groups of 5, 7 days observation) [mg/kg]
CN(C)Cc1nc2cc(CSCCNc3nc(N)nn3C)ccc2[nH]1 [Example 97, 1-methyl-5-[2-<5-(2-dimethylaminomethylbenzimidazolyl)-methylthio>ethyl]-1H-1,2,4-triazole-3,5-diamine] | 76 | > 1500 | 891 | 0.49 ± 0.02 | +37.4% | 
CN(C)Cc1nc2cc(CSCCNc3n[s+]([O-])nc3N)ccc2[nH]1 (stereo not shown) [Example 103, 3-[2-<5-(2-dimethylaminomethylbenzimidazolyl)methylthio>ethyl]amino-4-amino-1,2,5-thiadiazol-1-oxide] | 98 |  | 575 | 0.31 ± 0.02 | +14.8% | > 4000
